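Protocol summary: plate cells (96-well), add compound at 5 concentrations, incubate 48 h, interpolate endpoints linearly. TGI marks complete inhibition of growth.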
How the values were obtained:
Assay in all cases: inhibition of tumour cell growth, NCI panel, 48 h
MDA-N = tested on: MDA-N
SK-MEL-28 melanoma = tested on: SK-MEL-28 melanoma
RXF 393 renal = tested on: RXF 393 renal
UO-31 renal = tested on: UO-31 renal
HOP-62 NSCLC = tested on: HOP-62 NSCLC
COLO 205 colon = tested on: COLO 205 colon
MALME-3M melanoma = tested on: MALME-3M melanoma
HT29 colon = tested on: HT29 colon
LOX IMVI melanoma = tested on: LOX IMVI melanoma
NCI-H23 lung = tested on: NCI-H23 lung
SF-539 CNS = tested on: SF-539 CNS

Structure (SMILES) | TGI (MDA-N) [µM] | TGI (SK-MEL-28 melanoma) [µM] | TGI (RXF 393 renal) [µM] | TGI (UO-31 renal) [µM] | TGI (HOP-62 NSCLC) [µM] | TGI (COLO 205 colon) [µM] | TGI (MALME-3M melanoma) [µM] | TGI (HT29 colon) [µM] | TGI (LOX IMVI melanoma) [µM] | TGI (NCI-H23 lung) [µM] | TGI (SF-539 CNS) [µM]
ONC1=Nc2cc(Cl)ccc2C(=S)N2CSCC12 (stereo not drawn) | > 100 | > 100 | > 100 | > 100 | > 100 | > 100 | > 100 | > 100 | > 100 |  | 
CC1(C)N/C(=C\[N+](=O)[O-])C(C)(C)N1O | > 10 | > 10 | > 10 |  | > 10 | > 10 | > 10 | > 10 | > 10 | > 10 | > 10
O=[N+]([O-])c1ccc(CSc2nncc3[nH]cnc23)cc1 | > 100 | > 100 |  | > 100 | > 100 | > 100 | > 100 | > 100 | > 100 | > 100 | > 100
COc1c(=O)cc2cc[nH]c3cc[nH]c1c23 | > 100 | > 100 | > 100 | > 100 |  | > 100 | > 100 | > 100 | > 100 | > 100 | 
O=C1/C(=C/C=C/c2ccccc2)CCC1CNc1ccccc1 (stereo not drawn) |  | > 100 | 38.1 | > 100 | > 100 | > 94.3 | > 100 | 63.9 | 40 | > 80.9 | > 77.5
CNC1(c2cc3ccccc3s2)CCCCC1 | 39.9 |  | 67.1 | > 100 | > 100 | 41.9 |  | 67.8 | 40.9 | > 100 | 46.3
O=S(Cc1ccccc1)c1nc2ccccc2nc1-c1cccs1 (stereo not drawn) |  | 23.9 |  | 41 | 37.4 | 42.7 | 19.4 | 27.1 |  | 33.8 | 30
CN(/N=C/c1ccc(C(=O)O)cc1)C1=NCCCCN1 | > 100 | > 100 |  | > 100 | > 100 | > 100 | > 100 | > 100 | > 100 | > 100 | > 100
Cc1ccc(-n2[nH]nc(C(N)=O)c2=O)cc1 | > 100 | > 100 | > 100 | > 100 | > 100 | > 100 | > 100 | > 100 |  | > 100 | 
C=CCn1c(N)c(C#N)c(C#N)c1CCC | > 100 |  | > 100 | > 100 | > 100 | > 100 | > 100 | > 100 | > 100 | > 100 | > 100
Cc1ccc(C2(O)CSC(=NC34CC5CC(CC(C5)C3)C4)N2C(P(=O)(O)O)P(=O)(O)O)cc1 (stereo not drawn) | > 100 | > 100 |  | > 100 | > 100 | > 100 | > 100 | > 100 |  | > 100 | > 100
CC(C)(C)C1CCC(=O)/C(=C/CC2CC(=O)N(c3ccccc3)C(=O)C2)C1 (stereo not drawn) | 66.9 | 47.4 |  | 30.2 | 72.8 | 41.2 | 36.7 | 43.6 | 29.7 | 34.6 | 
COc1ccc2nc(N/N=C/c3sccc3C)cc(C)c2c1 | 39.4 | 50.5 | 62.6 | 65.1 | 36.3 | 32.7 | 31.3 | 24 | 32.9 | 28.9 | 
CC1(C)OCN(c2ccc(N3CCOCC3)cc2)Cn2c1nc1ccccc12 |  | > 100 | > 100 | > 100 | > 100 | > 100 | > 100 | > 100 | > 100 | > 100 | > 100
C=C1C(=O)OC2/C=C(\C(=O)O)CC/C=C(\C)CC(OC(=O)/C=C(\C)CC)C12 (stereo not drawn) |  | 34.2 | 27.5 | 41.9 | 34.5 | 31.3 | 32.7 | 30.1 | 29.3 | 33.2 | 29.9
N#Cc1c(-c2ccc(Cl)cc2)c2c(n(C3OC(CO)C(O)C(O)C3O)c1=S)CCCC2 (stereo not drawn) | > 100 | > 100 |  | > 100 | > 100 | > 100 | > 100 | > 100 | > 100 | > 100 | > 100
Cc1cccc(Cl)c1NCC(O)CN1CCN(C)CC1 (stereo not drawn) | > 100 | > 100 | > 100 | > 100 | > 100 |  | > 100 | > 100 | > 100 | > 100 | 
N[C@@H]1CCN(c2c(F)cc3c(=O)c(C(=O)O)cn4c3c2Oc2c-4ccc3c2ccc2ccccc23)C1 | > 100 | > 100 | > 100 | > 100 | > 100 | > 100 |  | > 100 | > 100 | > 100 | > 100
O=S(=O)(O)c1ccc(N=Nc2ccc3c(S(=O)(=O)O)cccc3c2O)c2ccccc12 | > 100 | > 100 | > 100 | > 100 | > 100 | > 100 | > 100 | > 100 | > 100 | > 100 | 
CC12C=CC(C)(C3C(=O)C4C(C(=O)C31)C1(C)C=CC4(C)S1=O)S2=O (stereo not drawn) | > 100 |  | > 100 | > 100 | > 100 | > 100 | > 100 | > 100 | > 100 | > 100 | > 100
O=C(NC1=C(Cl)C(=O)c2ccccc2C1=O)c1ccccc1 | 28.1 | > 100 | 34 |  | > 100 | 30 | 31.3 | 66.1 |  | 71.7 | > 100
N#C[S-].[La+3].c1cnc2c(c1)ccc1cccnc12.c1cnc2c(c1)ccc1cccnc12.c1cnc2c(c1)ccc1cccnc12 |  | 33.9 |  | 10.5 |  | 16.1 | 7.06 | 18 | 13.3 | 22.2 | 14.1
CNc1ncccc1Nc1cc(=O)n2c3cccnc3n(C)c2c1 | > 100 | > 100 | 80.8 | > 100 | > 100 | > 100 |  | > 100 | > 100 | > 100 | > 100

Source: PubChem BioAssay (NCI)
